Measured values reported in US7488730B2, “N-(1,2,3,4-tetrahydronaphthalen-1-yl)-4-phenyl-1-piperazinealkylamide derivatives, and therapeutic use thereof as 5-HT7 receptor ligands” (Universita Degli Studi Di Bari, priority 2005, dated 2009).

Experiments:
[1] = target: T1, rat cloned 5-HT7 receptor (Rattus norvegicus, UniProt P32305); experiment: Radioligand binding assay ([3H]-LSD) at rat cloned 5-HT7Rs; details: for Ki: [3H]-LSD, rat recombinant 5-HT7R expressed in HEK-293 cells
T1 construct: purchased PerkinElmer-NEN; host or cells: HEK-293
T1 sequence (P32305 whole entry): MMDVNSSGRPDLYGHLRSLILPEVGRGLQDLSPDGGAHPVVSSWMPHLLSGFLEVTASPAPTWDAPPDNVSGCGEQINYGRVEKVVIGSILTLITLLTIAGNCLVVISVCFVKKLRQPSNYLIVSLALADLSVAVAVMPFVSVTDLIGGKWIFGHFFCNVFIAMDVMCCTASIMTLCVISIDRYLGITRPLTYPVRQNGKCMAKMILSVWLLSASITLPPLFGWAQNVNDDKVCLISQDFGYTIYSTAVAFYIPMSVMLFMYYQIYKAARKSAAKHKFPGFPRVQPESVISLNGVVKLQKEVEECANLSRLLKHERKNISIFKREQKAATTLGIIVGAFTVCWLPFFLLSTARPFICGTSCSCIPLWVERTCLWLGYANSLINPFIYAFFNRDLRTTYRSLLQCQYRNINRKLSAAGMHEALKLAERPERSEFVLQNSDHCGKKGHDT
Description: Rat recombinant serotonin 5-HT7R expressed in HEK-293 cells were purchased from PerkinElmer-NEN (Betsville, Md., USA).
Radioligand Binding Assay at Rat Cloned 5-HT7Rs. Binding of [^3H]-LSD at rat cloned 5-HT7 receptor was performed according to a known method. In 1 mL of incubation buffer (50 mM Tris, 10 mM MgCl2 and 0.5 mM EDTA, pH 7.4) were suspended 30 μg of membranes, 2.5 nM [^3H]-LSD, the drugs or reference compound (six to nine concentrations). The samples were incubated for 60 min at 37° C. The incubation was stopped by rapid filtration on GF/A glass fiber filters (pre-soaked in 0.5% polyethylenimine for 30 min). The filters were washed with 3 ? 3 mL of ice-cold buffer (50 mM Tris, pH 7.4). Nonspecific binding was determined in the presence of 10 μM 5-CT. Approximately 90% of specific binding was determined under these conditions.

5-HT1A receptors = target: T2, 5-HT1A receptors (Rattus norvegicus, UniProt P19327); details: for Ki: read-out: Ki, nM 5-HT1A, [3H]-8-OH-DPAT, rat hippocampal membranes
T2 sequence (P19327 1-422): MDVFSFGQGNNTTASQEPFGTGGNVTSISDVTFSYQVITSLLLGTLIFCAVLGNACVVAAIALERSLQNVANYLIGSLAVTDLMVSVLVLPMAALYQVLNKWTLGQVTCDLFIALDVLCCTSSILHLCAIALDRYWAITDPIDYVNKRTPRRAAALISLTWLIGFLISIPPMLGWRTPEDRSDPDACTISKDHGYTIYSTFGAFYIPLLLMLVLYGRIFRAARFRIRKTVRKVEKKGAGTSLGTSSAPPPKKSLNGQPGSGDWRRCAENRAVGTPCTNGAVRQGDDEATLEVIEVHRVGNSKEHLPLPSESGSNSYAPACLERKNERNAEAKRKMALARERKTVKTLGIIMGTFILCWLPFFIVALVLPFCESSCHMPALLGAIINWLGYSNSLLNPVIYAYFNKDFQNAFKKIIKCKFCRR
Description: Radioligand Binding Assay at Rat Hippocampal Membranes 5-HT1A Receptors. Binding experiments were performed according to a known method. Rats were killed by decapitation, the brain was quickly removed, and the hippocampus was dissected. […] The homogenate was centrifuged at 48000 g for 15 min at 4° C. The supernatant was discarded, and the pellet was resuspended in 25 mL of buffer, then preincubated for 10 min at 37° C. The homogenate was centrifuged at 48000 g for 15 min at 4° C. The supernatant was discarded, and the final pellet was stored at −80° C. until used. […] For competitive inhibition experiments various concentrations of drugs studied were incubated. […] Samples were incubated at 37° C. for 20 min and then filtered on Whatman GF/B glass microfiber filters.
Statistical Analysis. […] The value for the inhibition constant, Ki, was calculated by using the Cheng-Prusoff equation.

Row | Structure (SMILES) | Ki [1] [nM] | Ki (5-HT1A receptors) [nM] | 5-HT7R affinity (in words) [1] | 5-HT1A receptor affinity (in words) (5-HT1A receptors)
1 | COc1ccccc1N1CCN(CCCCC(=O)NC2CCCc3c(OC)cccc32)CC1 (stereo not shown) [Compound 15] | 28.2 ± 4.2 | 54.4 ± 6.5 | – | –
2 | COc1ccccc1N1CCN(CCCCCC(=O)NC2CCCc3cccc(OC)c32)CC1 (stereo not shown) [Compound 25] | 31.4 ± 3.5 | 30 ± 2.6 | – | –
3 | COc1ccccc1N1CCN(CCCC(=O)NC2CCCc3cccc(OC)c32)CC1 (stereo not shown) [Compound 23, N-(8-Methoxy-1,2,3,4-tetrahydronaphthalen-1-yl)4-(2-methoxyphenyl)-1-piperazinebutanamide] | 154 ± 35 | 441 ± 20 | – | –
4 | COc1ccccc1N1CCN(CCC(=O)NC2CCCc3c(OC)cccc32)CC1 (stereo not shown) [Compound 6] | 269 ± 18 | – | moderate affinities | moderate affinities
5 | COc1ccc(N2CCN(CCCCCC(=O)NC3CCCc4ccccc43)CC2)cc1 (stereo not shown) [Compound 38] | 2100 ± 150 | – | nearly devoid of 5-HT7R affinity | –
6 | COc1ccccc1N1CCN(CCCCC(=O)NC2CCCc3ccccc32)CC1 (stereo not shown) [Compound 27, 4-(2-Methoxyphenyl)-N-(1,2,3,4-tetrahydronaphthalen-1-yl)-1-piperazinepentanamide] | 6.05 ± 0.25 | 9 ± 0.7 | – | –
7 | CC(=O)c1ccc(N2CCN(CCCCCC(=O)NC3CCCc4ccccc43)CC2)cc1 (stereo not shown) [Compound 42] | 2640 ± 130 | – | nearly devoid of 5-HT7R affinity | –
8 | COc1ccc2c(c1)CCCC2NC(=O)CCCN1CCN(c2ccccc2OC)CC1 (stereo not shown) [Compound 17] | 186 ± 40 | 257 ± 25 | – | –
9 | COc1ccc2c(c1)C(NC(=O)CCCCCN1CCN(c3ccccc3OC)CC1)CCC2 (stereo not shown) [Compound 22] | 41 ± 11 | 39 ± 6.5 | – | –
10 | COc1ccc2c(c1)C(NC(=O)CCCCN1CCN(c3ccccc3OC)CC1)CCC2 (stereo not shown) [Compound 21] | 38.4 ± 4.6 | 78.9 ± 6.3 | – | –
11 | COc1ccc2c(c1)C(NC(=O)CCCN1CCN(c3ccccc3OC)CC1)CCC2 (stereo not shown) [Compound 20] | 129 ± 5 | 160 ± 12 | – | –
12 | COc1ccc2c(c1)CCCC2NC(=O)CCCCN1CCN(c2ccccc2OC)CC1 (stereo not shown) [Compound 18] | 43.1 ± 4.8 | 23.2 ± 2.3 | – | –
13 | COc1ccccc1N1CCN(CCCC(=O)NC2CCCc3c(OC)cccc32)CC1 (stereo not shown) [Compound 7, N-(5-methoxy-1,2,3,4-tetrahydronaphthalen-1-yl)-4-(2-methoxyphenyl)-1-piperazinebutanamide] | 35 ± 3.2 | 254 ± 65 | moderate affinities | moderate affinities
14 | COc1ccccc1N1CCN(CCCCC(=O)NC2CCCc3cccc(OC)c32)CC1 (stereo not shown) [Compound 24] | 64 ± 12 | 72 ± 18 | – | –
15 | COc1ccccc1N1CCN(CCCC(=O)NC2CCCc3ccccc32)CC1 (stereo not shown) [Compound 26, 4-(2-Methoxyphenyl)-N-(1,2,3,4-tetrahydronaphthalen-1-yl)-1-piperazinebutanamide] | 92 ± 12 | 245 ± 20 | – | –
16 | NCCc1c[nH]c2ccc(C(N)=O)cc12 [5-CT, reference compound] | 0.51 ± 0.01 | – | – | –
17 | COc1ccc2c(c1)CCCC2NC(=O)CCCCCN1CCN(c2ccccc2OC)CC1 (stereo not shown) [Compound 19] | 30 ± 3.15 | 55 ± 8 | – | –
18 | COc1ccccc1N1CCN(CCCCCC(=O)NC2CCCc3c(OC)cccc32)CC1 (stereo not shown) [Compound 16] | 20 ± 2.5 | 24.5 ± 1.8 | – | –
19 | N#Cc1ccc(N2CCN(CCCCCC(=O)NC3CCCc4ccccc43)CC2)cc1 (stereo not shown) [Compound 40] | 1400 ± 120 | – | nearly devoid of 5-HT7R affinity | –
